What follows are molecules tested on HCV genotype 1b replicon (assay: HCV replicon assay, cell ELISA with antibody to replicon-encoded NS3/4A (genotype 1b replicon)). Settings: HCV genotype 1b replicon; 96 hours incubation; NS3/4A cell ELISA; read-out: 1b IC50.
Type: cell-based, hepatitis C virus
Procedure, shortened: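 Replicon-harbouring cells carrying neomycin phosphotransferase were incubated 96 h with a compound dilution series without G418. Replication was quantified indirectly by a cell ELISA detecting replicon-encoded NS3/4A. IC50 values were calculated relative to DMSO control with a four-parameter fit.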

`CCOP(=O)(O)CCCN(c1cc2oc(-c3ccc(F)cc3)c(C(=O)NC)c2cc1-c1ccc(OC)c(-c2nc3c(F)cccc3o2)c1)S(C)(=O)=O` [Example 844] gave an IC50 of 3.88 nM.

Same assay, conditions: Hepatitis C virus, 96 h, read-out: 1b IC50(nM), HCV genotype 1b replicon; 96 hours incubation; NS3/4A cell ELISA

`CNC(=O)c1c(-c2ccc(F)cc2)oc2cc(N(CC3(C#N)CC3)S(C)(=O)=O)c(-c3ccc(OC)c(-c4nc5c(F)cc(F)cc5o4)c3)cc12` [Example 738] and `CNC(=O)c1c(-c2ccc(F)cc2)oc2cc(N(CC(O)CC#N)S(C)(=O)=O)c(-c3ccc(OC)c(-c4nc5c(F)cc(F)cc5o4)c3)cc12` (centres unmarked) [Example 819] are within 1.5-fold of each other in IC50: 7.62 nM for the first, 8.3 nM for the second.

Compared with `CNC(=O)c1c(-c2ccc(F)cc2)oc2cc(N(C3CC(C#N)C3)S(C)(=O)=O)c(-c3cccc(-c4nc5ncccc5o4)c3)cc12` (centres unmarked) [Example 739], `CNC(=O)c1c(-c2ccc(F)cc2)oc2cc(N(CC(C)N)S(C)(=O)=O)c(-c3cccc(-c4nc5ncccc5o4)c3)cc12` (centres unmarked) [Example 830] is 3.9-fold higher in IC50: 2.17 nM for the first, 8.47 nM for the second.

`CNC(=O)c1c(-c2ccc(F)cc2)oc2cc(N(C3CC(C#N)C3)S(C)(=O)=O)c(-c3ccc(OC)c(-c4nc5c(F)cccc5o4)c3)cc12` (centres unmarked) [Example 740] and `CNC(=O)c1c(-c2ccc(F)cc2)oc2cc(N(C3CC(C#N)C3)S(C)(=O)=O)c(-c3ccc(OC)c(-c4nc5c(C#N)cccc5o4)c3)cc12` (centres unmarked) [Example 741] are within 1.5-fold of each other in IC50: 4.76 nM for the first, 5.85 nM for the second.

First: CNC(=O)c1c(-c2ccc(F)cc2)oc2cc(N(C3CC(C#N)C3)S(C)(=O)=O)c(-c3ccc(OC)c(-c4nc5c(F)cc(F)cc5o4)c3)cc12 (centres unmarked) [Example 742]
Second: CNC(=O)c1c(-c2ccc(F)cc2)oc2cc(N(CC(C)(C)F)S(C)(=O)=O)c(-c3ccc(OC)c(-c4nc5c(F)cc(F)cc5o4)c3)cc12 [Example 791]
The IC50 of the first is 6.2-fold lower: 4.57 nM for the first, 28.5 nM for the second.

Going from `CNC(=O)c1c(-c2ccc(F)cc2)oc2cc(N(CC3CCOC(c4ccccc4)O3)S(C)(=O)=O)c(-c3ccc(OC)c(-c4nc5c(F)cccc5o4)c3)cc12` (centres unmarked) [Example 769] to `CNC(=O)c1c(-c2ccc(F)cc2)oc2cc(N(CC(O)Cn3ncc4ccccc43)S(C)(=O)=O)c(-c3ccc(OC)c(-c4nc5c(F)cccc5o4)c3)cc12` (centres unmarked) [Example 827], the IC50 falls from 80.7 nM to 11.8 nM (6.8-fold). The second is the more potent here.

`CNC(=O)c1c(-c2ccc(F)cc2)oc2cc(N(CCC3COC(C)(C)O3)S(C)(=O)=O)c(-c3ccc(OC)c(-c4nc5c(F)cccc5o4)c3)cc12` (centres unmarked) [Example 770] and `CNC(=O)c1c(-c2ccc(F)cc2)oc2cc(N(CCC3COC(C)(C)O3)S(C)(=O)=O)c(-c3ccc(OC)c(-c4nc5c(F)cc(F)cc5o4)c3)cc12` (centres unmarked) [Example 771] are within 1.5-fold of each other in IC50: 11.3 nM for the first, 13.3 nM for the second.

First: CNC(=O)c1c(-c2ccc(F)cc2)oc2cc(N(CC(C)(C)O)S(C)(=O)=O)c(-c3ccc(OC)c(-c4nc5cccc(F)c5o4)c3)cc12 [Example 778]
Second: CNC(=O)c1c(-c2ccc(F)cc2)oc2cc(N(CC(C)(C)O)S(C)(=O)=O)c(-c3ccc(OC)c(-c4nc5c(F)cccc5o4)c3)cc12 [Example 779]
The IC50 of the first is 3-fold higher: 24.8 nM for the first, 8.28 nM for the second.

Compared with `CNC(=O)c1c(-c2ccc(F)cc2)oc2cc(N(CC(C)(C)O)S(C)(=O)=O)c(-c3ccc(OC)c(-c4nc5cc(F)cc(F)c5o4)c3)cc12` [Example 780], `CNC(=O)c1c(-c2ccc(F)cc2)oc2cc(N(CC(C)(CO)CO)S(C)(=O)=O)c(-c3ccc(OC)c(-c4nc5c(F)cc(F)cc5o4)c3)cc12` [Example 788] is 4.3-fold higher in IC50: 18.5 nM for the first, 79 nM for the second.

Compared with `CNC(=O)c1c(-c2ccc(F)cc2)oc2cc(N(C(CO)CO)S(C)(=O)=O)c(-c3ccc(OC)c(-c4nc5c(F)cccc5o4)c3)cc12` [Example 782], `CNC(=O)c1c(-c2ccc(F)cc2)oc2cc(N(C(CO)CF)S(C)(=O)=O)c(-c3ccc(OC)c(-c4nc5c(F)cccc5o4)c3)cc12` (centres unmarked) [Example 814] is 1.8-fold higher in IC50: 5.41 nM for the first, 9.83 nM for the second.

`CNC(=O)c1c(-c2ccc(F)cc2)oc2cc(N(CCC(O)CO)S(C)(=O)=O)c(-c3ccc(OC)c(-c4nc5c(F)cccc5o4)c3)cc12` (centres unmarked) [Example 784] and `CNC(=O)c1c(-c2ccc(F)cc2)oc2cc(N(CCC(O)CC#N)S(C)(=O)=O)c(-c3ccc(OC)c(-c4nc5c(F)cccc5o4)c3)cc12` (centres unmarked) [Example 821] are within 1.5-fold of each other in IC50: 3.61 nM for the first, 3.27 nM for the second.

First: CNC(=O)c1c(-c2ccc(F)cc2)oc2cc(N(CCC(O)CO)S(C)(=O)=O)c(-c3ccc(OC)c(-c4nc5c(F)cc(F)cc5o4)c3)cc12 (centres unmarked) [Example 785]
Second: CNC(=O)c1c(-c2ccc(F)cc2)oc2cc(N(CC(C)(CF)CF)S(C)(=O)=O)c(-c3ccc(OC)c(-c4nc5c(F)cc(F)cc5o4)c3)cc12 [Example 809]
The IC50 of the first is 60-fold lower: 3.55 nM for the first, 213 nM for the second. The first is the more potent here.

`CNC(=O)c1c(-c2ccc(F)cc2)oc2cc(N(CC(C)(C)F)S(C)(=O)=O)c(-c3ccc(OC)c(-c4nc5c(F)cccc5o4)c3)cc12` [Example 789] and `CNC(=O)c1c(-c2ccc(F)cc2)oc2cc(N(CCC(C)(C)F)S(C)(=O)=O)c(-c3ccc(OC)c(-c4nc5c(F)cccc5o4)c3)cc12` [Example 796] are within 1.5-fold of each other in IC50: 18.7 nM for the first, 14 nM for the second.

`CNC(=O)c1c(-c2ccc(F)cc2)oc2cc(N(CCC(C)(C)F)S(C)(=O)=O)c(-c3cccc(-c4nc5ncccc5o4)c3)cc12` [Example 797] and `CNC(=O)c1c(-c2ccc(F)cc2)oc2cc(N(CCC(C)(C)O)S(C)(=O)=O)c(-c3cccc(-c4nc5ncccc5o4)c3)cc12` [Example 859] are within 1.5-fold of each other in IC50: 2.43 nM for the first, 2.1 nM for the second.

Compared with `CNC(=O)c1c(-c2ccc(F)cc2)oc2cc(N(C(CF)CF)S(C)(=O)=O)c(-c3ccc(OC)c(-c4nc5c(F)cccc5o4)c3)cc12` [Example 807], `CNC(=O)c1c(-c2ccc(F)cc2)oc2cc(N(CC(F)CCF)S(C)(=O)=O)c(-c3ccc(OC)c(-c4nc5c(F)cccc5o4)c3)cc12` (centres unmarked) [Example 810] is 3.5-fold lower in IC50: 46.7 nM for the first, 13.4 nM for the second. The second is the more potent here.

Going from `CNC(=O)c1c(-c2ccc(F)cc2)oc2cc(N(CC(C)(CO)CF)S(C)(=O)=O)c(-c3ccc(OC)c(-c4nc5c(F)cccc5o4)c3)cc12` (centres unmarked) [Example 813] to `CNC(=O)c1c(-c2ccc(F)cc2)oc2cc(N(CC(O)CCF)S(C)(=O)=O)c(-c3ccc(OC)c(-c4nc5c(F)cccc5o4)c3)cc12` (centres unmarked) [Example 815], the IC50 falls from 107 nM to 11.8 nM (9.1-fold).

Going from `CNC(=O)c1c(-c2ccc(F)cc2)oc2cc(N(CC(O)CC#N)S(C)(=O)=O)c(-c3ccc(OC)c(-c4nc5ccccc5o4)c3)cc12` (centres unmarked) [Example 820] to `CNC(=O)c1c(-c2ccc(F)cc2)oc2cc(N(CC(O)Cn3ccnc3)S(C)(=O)=O)c(-c3ccc(OC)c(-c4nc5c(F)cccc5o4)c3)cc12` (centres unmarked) [Example 825], the IC50 rises from 5.06 nM to 8.88 nM (1.8-fold). The first is the more potent here.

First: CNC(=O)c1c(-c2ccc(F)cc2)oc2cc(N(C3CN(C(=O)[C@@H](NC(=O)OC)C(C)C)C3)S(C)(=O)=O)c(-c3ccc(OC)c(-c4nc5c(F)cccc5o4)c3)cc12 [Example 834]
Second: CNC(=O)c1c(-c2ccc(F)cc2)oc2cc(N(CCCP(=O)(O)O)S(C)(=O)=O)c(-c3ccc(OC)c(-c4nc5c(F)cccc5o4)c3)cc12 [Example 843]
The IC50 of the first is 1.7-fold lower: 11.5 nM for the first, 19.5 nM for the second.

Compared with `CNC(=O)c1c(-c2ccc(F)cc2)oc2cc(N(C[C@@H](C)NC(=O)[C@@H](NC(=O)OC)C(C)C)S(C)(=O)=O)c(-c3cccc(-c4nc5ncccc5o4)c3)cc12` [Example 836], `CNC(=O)c1c(-c2ccc(F)cc2)oc2cc(N(CC(F)F)S(C)(=O)=O)c(-c3cccc(-c4nc5ncccc5o4)c3)cc12` [Example 869] is 36-fold lower in IC50: 82 nM for the first, 2.3 nM for the second. The second is the more potent here.

First: CN(C(=O)c1c(-c2ccc(F)cc2)oc2cc(N(C)S(C)(=O)=O)c(-c3cccc(-c4cc5ccccc5[nH]4)c3)cc12)c1ccncc1 [Example 848]
Second: CN(c1cc2oc(-c3ccc(F)cc3)c(C(=O)Nc3cccnc3)c2cc1-c1cccc(-c2cc3ccccc3[nH]2)c1)S(C)(=O)=O [Example 851, 5-(3-(1H-indol-2-yl)phenyl)-2-(4-fluorophenyl)-6-(N-methylmethylsulfonamido)-N-(pyridin-3-yl)benzofuran-3-carboxamide]
The IC50 of the first is 18-fold higher: 6440 nM for the first, 350 nM for the second. The second is the more potent here.

Compared with `CNC(=O)c1c(-c2ccc(F)cc2)oc2cc(N(C)S(C)(=O)=O)c(-c3ccc(F)c(-c4cc5cccnc5[nH]4)c3)cc12` [Example 855], `CNC(=O)c1c(-c2ccc(F)cc2)oc2cc(N(C)S(C)(=O)=O)c(-c3cc(OC)cc(-c4cc5cccnc5[nH]4)c3)cc12` [Example 861] is 1.5-fold higher in IC50: 1.2 nM for the first, 1.8 nM for the second.

Going from `CNC(=O)c1c(-c2ccc(F)cc2)oc2cc(N(CCCO)S(C)(=O)=O)c(-c3cc(F)cc(-c4nc5ncccc5o4)c3)cc12` [Example 856] to `CNC(=O)c1c(-c2ccc(F)cc2)oc2cc(N(CCCF)S(C)(=O)=O)c(-c3cccc(-c4nc5ncccc5o4)c3)cc12` [Example 868], the IC50 falls from 4 nM to 1.3 nM (3.1-fold).

`CNC(=O)c1c(-c2ccc(F)cc2)oc2cc(N(C)S(C)(=O)=O)c(-c3ccc(OC)c(-c4nc5cc(F)ccc5o4)c3)cc12` [Example 857] and `CNC(=O)c1c(-c2ccc(F)cc2)oc2cc(N(C)S(C)(=O)=O)c(-c3ccc(OC)c(-c4nc5cccc(C#N)c5o4)c3)cc12` [Example 858] are within 1.5-fold of each other in IC50: 2.6 nM for the first, 2.8 nM for the second.

Going from `CNC(=O)c1c(-c2ccc(F)cc2)oc2cc(N(C)S(C)(=O)=O)c(-c3ccc(OC)c(-c4cc5cc(F)ccc5[nH]4)c3)cc12` [Example 860] to `CNC(=O)c1c(-c2ccc(F)cc2)oc2cc(N(C)S(C)(=O)=O)c(-c3ccc(Cl)c(-c4nc5c(F)cccc5o4)c3)cc12` [Example 865], the IC50 rises from 1.9 nM to 4.7 nM (2.5-fold). The first is the more potent here.

First: CNC(=O)c1c(-c2ccc(F)cc2)oc2cc(N(C)S(C)(=O)=O)c(-c3cc(F)cc(-c4nc5ncc(F)cc5o4)c3)cc12 [Example 862]
Second: CNC(=O)c1c(-c2ccc(F)cc2)oc2cc(N(C)S(C)(=O)=O)c(-c3cc(OC)cc(-c4nc5ncccc5o4)c3)cc12 [Example 866]
The IC50 of the first is 2.4-fold lower: 1.3 nM for the first, 3.1 nM for the second.

`CNC(=O)c1c(-c2ccc(F)cc2)oc2cc(N(CCCF)S(C)(=O)=O)c(-c3ccc(OC)c(-c4nc5ncccc5o4)c3)cc12` [Example 863] and `CNC(=O)c1c(-c2ccc(F)cc2)oc2cc(N(CCF)S(C)(=O)=O)c(-c3ccc(OC)c(-c4nc5ncccc5o4)c3)cc12` [Example 870] are within 1.5-fold of each other in IC50: 1.8 nM for the first, 1.3 nM for the second.

Same assay, conditions: read-out: 1b IC50; HCV genotype 1b replicon; 96 hours incubation; NS3/4A cell ELISA

Compared with `CNC(=O)c1c(-c2ccc(F)cc2)oc2cc(N(CC(O)Cn3ccnc3)S(C)(=O)=O)c(-c3ccc(OC)c(-c4nc5c(F)cccc5o4)c3)cc12` (centres unmarked) [Example 824], `CNC(=O)c1c(-c2ccc(F)cc2)oc2cc(N(CCF)S(C)(=O)=O)c(-c3cccc(-c4nc5ncccc5o4)c3)cc12` [Example 867] is 9.8-fold lower in IC50: 17.7 nM for the first, 1.8 nM for the second.

— patent US20120328569A1, “INHIBITORS OF HEPATITIS C VIRUS NS5B POLYMERASE” (priority 2010, published 2012)
